Tests used:
Assay type in all cases: in vivo
Kochia (Kochia scoparia) [1] = test: Test A preemergence
Summary of the method: (§1)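 Visual injury, scored on a 0–100 scale relative to untreated controls, was recorded about 10 d after application. Treatments were a preemergence soil spray over planted seeds or a postemergence spray on plants at the one- to two-leaf stage, 2 to 10 cm tall, all in loam soil–sand blend in the greenhouse.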

[2] = tested on: barnyardgrass (Echinochloa crus-galli); test: Test A preemergence
Summary of the method: as §1

[3] = tested on: giant foxtail (Setaria faberii); test: Test A preemergence
Summary of the method: as §1

[4] = tested on: pigweed (Amaranthus retroflexus); test: Test A preemergence
[5] = tested on: ragweed (common ragweed, Ambrosia elatior); test: Test A preemergence
Summary of the method: as §1

[6] = tested on: ryegrass, Italian (Italian ryegrass, Lolium multiflorum); test: Test A preemergence
Summary of the method: as §1

[7] = tested on: Galium (catchweed bedstraw, Galium aparine); test: Test A postemergence; conditions: postemergence, 0 to 100 scale (0 no effect, 100 complete control)
Summary of the method: as §1

Kochia (Kochia scoparia) [8] = test: Test A postemergence; conditions: postemergence, 0 to 100 scale (0 no effect, 100 complete control)
Summary of the method: as §1

[9] = tested on: barnyardgrass (Echinochloa crus-galli); test: Test A postemergence; conditions: postemergence, 0 to 100 scale (0 no effect, 100 complete control)
Summary of the method: as §1

[10] = tested on: blackgrass (Alopecurus myosuroides); test: Test A postemergence; conditions: postemergence, 0 to 100 scale (0 no effect, 100 complete control)
Summary of the method: as §1

corn (Zea mays) = test: Test A postemergence; conditions: postemergence, 0 to 100 scale (0 no effect, 100 complete control)
Summary of the method: as §1

[11] = tested on: giant foxtail (Setaria faberii); test: Test A postemergence; conditions: postemergence, 0 to 100 scale (0 no effect, 100 complete control)
Summary of the method: as §1

[12] = tested on: pigweed (Amaranthus retroflexus); test: Test A postemergence; conditions: postemergence, 0 to 100 scale (0 no effect, 100 complete control)
Summary of the method: as §1

[13] = tested on: ragweed (common ragweed, Ambrosia elatior); test: Test A postemergence; conditions: postemergence, 0 to 100 scale (0 no effect, 100 complete control)
Summary of the method: as §1

[14] = tested on: ryegrass, Italian (Italian ryegrass, Lolium multiflorum); test: Test A postemergence; conditions: postemergence, 0 to 100 scale (0 no effect, 100 complete control)
Summary of the method: as §1

[15] = tested on: wheat (Triticum aestivum); test: Test A postemergence; conditions: postemergence, 0 to 100 scale (0 no effect, 100 complete control)
Summary of the method: as §1

[16] = tested on: barnyardgrass (Echinochloa crus-galli); test: Test B flooded paddy test; conditions: Flood, 0 to 100 scale where 0 is no effect and 100 is complete control, 13 to 15 d
Summary of the method: (§2)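 Percent control, visually estimated after 13–15 d in the greenhouse on a 0–100 basis, compares treated pots with untreated ones; compound was put into paddy water 3 cm above the soil when plants had two leaves.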

[17] = tested on: ducksalad (Heteranthera limosa); test: Test B flooded paddy test; conditions: Flood, 0 to 100 scale where 0 is no effect and 100 is complete control, 13 to 15 d
Summary of the method: as §2

rice (Oryra sativa) = test: Test B flooded paddy test; conditions: Flood, 0 to 100 scale where 0 is no effect and 100 is complete control, 13 to 15 d
Summary of the method: as §2

[18] = tested on: sedge, umbrella (small-flower umbrella sedge, Cyperus difformis); test: Test B flooded paddy test; conditions: Flood, 0 to 100 scale where 0 is no effect and 100 is complete control, 13 to 15 d
Summary of the method: as §2

[19] = 125 g ai/ha, Preemergence, visual injury after approximately 10 d, 0 to 100 scale where 0 is no effect and 100 is complete control
[20] = 500 g ai/ha, preemergence, 0 to 100 scale, 0 = no effect, 100 = complete control
[21] = 125 g ai/ha, visual rating after approx. 10 d
[22] = 500 g ai/ha, visual injury, approx. 10 d
[23] = 125 g ai/ha, preemergence, visual rating after approx. 10 d, 0 to 100 scale where 0 is no effect and 100 is complete control
[24] = 125 g ai/ha, visual injury after approximately 10 d

SMILES | Plant response rating, Kochia (Kochia (Kochia scoparia) [1]; [19]) | Plant response rating, Kochia (Kochia (Kochia scoparia) [1]; [20]) | Plant response rating, Barnyardgrass [2, 19] | Plant response rating, Barnyardgrass [2, 20] | Plant response rating, Foxtail, Giant [3, 19] | Plant response rating, Foxtail, Giant [3, 20] | Plant response rating, Pigweed [4, 20] | Plant response rating, Ragweed [5, 20] | Plant response rating, Ryegrass, Italian [6, 20] | Plant response rating, Galium [7, 22] | Plant response rating, Kochia (Kochia (Kochia scoparia) [8]; [22]) | Plant response rating, Barnyardgrass [9, 21] | Plant response rating, Barnyardgrass [9, 22] | Plant response rating, Blackgrass [10, 22] | Plant response rating, Corn (corn (Zea mays); [22]) | Plant response rating, Foxtail, Giant [11, 22] | Plant response rating, Pigweed [12, 22] | Plant response rating, Ragweed [13, 22] | Plant response rating, Ryegrass, Italian [14, 22] | Plant response rating, Wheat [15, 22] | also measured
CN1CC(c2cc(F)cc(F)c2)C(C(=O)Nc2ccccc2C(F)(F)F)C1=O (stereo not drawn) [Compound 647] | 0 | 0 | 90 | 90 | 90 | 100 | 60 | 40 | 30 | 50 | 20 | 80 | 90 | 60 | 40 | 90 | 0 | 10 | 0 | 50 | Plant response rating, Pigweed [4, 19]: 0; Plant response rating, Ragweed [5, 19]: 0; Plant response rating, Ryegrass, Italian [6, 19]: 30; Plant response rating, Galium [7, 21]: 20; Plant response rating, Kochia (Kochia (Kochia scoparia) [8]; [21]): 0; Plant response rating, Blackgrass [10, 21]: 20; Plant response rating, Corn (corn (Zea mays); [21]): 10; Plant response rating, Foxtail, Giant [11, 21]: 90; Plant response rating, Pigweed [12, 21]: 0; Plant response rating, Ragweed [13, 21]: 0; Plant response rating, Ryegrass, Italian [14, 21]: 0; Plant response rating, Wheat [15, 21]: 20; Plant response rating, Barnyardgrass ([16]; 250 g ai/ha): 75; Plant response rating, Ducksalad ([17]; 250 g ai/ha): 90; Plant response rating, Rice (rice (Oryra sativa); 250 g ai/ha): 40; Plant response rating, Sedge, Umbrella ([18]; 250 g ai/ha): 0
O=C1NCC(c2cccc(Br)c2)C1C(=O)Nc1cccc(F)c1F (racemic) [Compound 688] | 30 | 50 | 90 | 90 | 90 | 90 | 40 | 40 | 20 | 50 | 60 | 90 | 90 | 60 | 70 | 90 | 50 | 50 | 60 | 70 | Plant response rating, Pigweed [4, 23]: 30; Plant response rating, Ragweed [5, 23]: 20; Plant response rating, Ryegrass, Italian [6, 23]: 0; Plant response rating, Galium [7, 24]: 40; Plant response rating, Kochia (Kochia (Kochia scoparia) [8]; [24]): 40; Plant response rating, Blackgrass [10, 21]: 50; Plant response rating, Corn (corn (Zea mays); [24]): 40; Plant response rating, Foxtail, Giant [11, 24]: 90; Plant response rating, Pigweed [12, 24]: 30; Plant response rating, Ragweed [13, 24]: 30; Plant response rating, Ryegrass, Italian [14, 24]: 40; Plant response rating, Wheat [15, 24]: 20; Plant response rating, Barnyardgrass ([16]; 250 g ai/ha): 35; Plant response rating, Ducksalad ([17]; 250 g ai/ha): 100; Plant response rating, Rice (rice (Oryra sativa); 250 g ai/ha): 0; Plant response rating, Sedge, Umbrella ([18]; 250 g ai/ha): 0
COc1cccc(NC(=O)C2C(=O)NCC2c2cccc(C(F)(F)F)c2)c1F (racemic) [Compound 674] | 0 | 30 | 60 | 80 | 70 | 90 | 0 | 0 | 0 | 0 | 0 | 30 | 70 | 0 | 0 | 80 | 0 | 0 | 0 | 0 | Plant response rating, Pigweed [4, 19]: 0; Plant response rating, Ragweed [5, 19]: 0; Plant response rating, Ryegrass, Italian [6, 19]: 0; Plant response rating, Galium [7, 21]: 0; Plant response rating, Kochia (Kochia (Kochia scoparia) [8]; [21]): 0; Plant response rating, Blackgrass [10, 21]: 0; Plant response rating, Corn (corn (Zea mays); [21]): 0; Plant response rating, Foxtail, Giant [11, 21]: 30; Plant response rating, Pigweed [12, 21]: 0; Plant response rating, Ragweed [13, 21]: 0; Plant response rating, Ryegrass, Italian [14, 21]: 0; Plant response rating, Wheat [15, 21]: 0; Plant response rating, Barnyardgrass ([16]; 500 g ai/ha): 60; Plant response rating, Ducksalad ([17]; 500 g ai/ha): 65; Plant response rating, Rice (rice (Oryra sativa); 500 g ai/ha): 20; Plant response rating, Sedge, Umbrella ([18]; 500 g ai/ha): 0
O=C1NCC(c2cccc(OC(F)(F)C(F)F)c2)C1C(=O)Nc1ccccc1Cl (racemic) [Compound 699] | – | 70 | – | 90 | – | 90 | 50 | 70 | 40 | 60 | 50 | – | 80 | 60 | 60 | 80 | 20 | 30 | 30 | 20 | Plant response rating, Kochia (Kochia (Kochia scoparia) [1]; [23]): 0; Plant response rating, Barnyardgrass [2, 23]: 90; Plant response rating, Foxtail, Giant [3, 23]: 90; Plant response rating, Pigweed [4, 23]: 30; Plant response rating, Ragweed [5, 23]: 0; Plant response rating, Ryegrass, Italian [6, 23]: 20; Plant response rating, Galium [7, 24]: 50; Plant response rating, Kochia (Kochia (Kochia scoparia) [8]; [24]): 30; Plant response rating, Barnyardgrass [9, 24]: 50; Plant response rating, Blackgrass [10, 24]: 30; Plant response rating, Corn (corn (Zea mays); [24]): 30; Plant response rating, Foxtail, Giant [11, 24]: 50; Plant response rating, Pigweed [12, 24]: 20; Plant response rating, Ragweed [13, 24]: 0; Plant response rating, Ryegrass, Italian [14, 24]: 0; Plant response rating, Wheat [15, 24]: 0; Plant response rating, Barnyardgrass ([16]; 500 g ai/ha): 60; Plant response rating, Ducksalad ([17]; 500 g ai/ha): 90; Plant response rating, Rice (rice (Oryra sativa); 500 g ai/ha): 0; Plant response rating, Sedge, Umbrella ([18]; 500 g ai/ha): 0
